Patent US5466717A, “Halogenated 4'-methoxyacetophenones as microbicides and preservatives” (Buckman Laboratories Int'l, Inc., priority 1993, dated 1995)
Converted amounts (≈) assume the structure as drawn. Like-named read-outs stand apart in the source and are kept apart here.

How the values were obtained:
[1] = system: Aspergillus sp., Aureobasidium sp., Trichoderma sp., Penicillium sp., and Chaetomium sp.; experiment: Resistance to growth of mold on the surface of interior coatings in an environmental chamber, ASTM D3273-86 (Table 4); design: key: 10: no mold growth; 9: very slight mold growth; 8: slight growth; 7: slight to medium growth; 6: slight to medium growth; 5: failure (extensive growth)
Method: A standard method to determine the resistance to growth of mold on the surface of interior coatings in an environmental chamber, ASTM method D3273-86, was used to determine the effectiveness of compounds 1 and 2.
Treatments were prepared by dissolving 2.0 g of the compounds of the present invention in 10 mL of acetone/methanol. Two types of paint were used: namely, an alkyd (self-priming white with Beckasol 296-70) and a latex (self-priming, alkyd-modified acrylic paint). […] Each sample was shaken vigorously for 5 minutes using a standard paint shaker.
Blocks of drywall having two inch by four inch dimensions were painted on the front surface and on all edges with two coats of the respective treatments. After drying, the back side was painted with one coat of clear latex. A hole was drilled half-way through the block at one end, and duplicate blocks per treatment were hung in an environmental chamber.
The aggressive nature of the interior of the chamber was developed by inoculating trays of moist potting soil with active cultures of Aspergillus sp., Aureobasidium sp., Trichoderma sp., Penicillium sp., and Chaetomium sp. The chamber was maintained at 100 percent relative humidity and 32° C. Final observations were made after four weeks (for latex blocks) or eight weeks (for alkyd blocks).

Enterobacter aerogenes = experiment: Pulp substrate method, percent kill of E. aerogenes (Table 2); assay type: cell-based; details: for killing at 1 ppm / killing at 2 ppm / killing at 4 ppm / killing at 8 ppm / killing at 10 ppm / killing at 15 ppm / killing at 20 ppm / killing at 25 ppm: Klebsiella aerogenes, pulp substrate, read-out: % Kill of E. aerugenes; for bactericidal activity (in words): at both neutral and alkaline pH, conclusion from Table 2 (E. aerogenes and P. aeruginosa)
Method: Compounds 1 and 2 were tested by the pulp substrate method described in detail in U.S. Pat. No. 2,881,070, column 5, line 12--column 6, line 53. The disclosure of U.S. Pat. No. 2,881,070 is specifically incorporated here by reference. […] The tests utilized Enterobacter aerogenes and Pseudomonas aeruginosa in pulp substrates that had been buffered at pH 7.0 and 8.0.

Aspergillus niger = experiment: Inhibition of Aspergillus niger, modified pulp substrate method (Table 3); assay type: cell-based; design: key: 4: excellent; 3: good; 2: poor; 1: very poor, scant, questionable; 0: no growth; details: pH 4.5 to 5.0
Method: The growth inhibiting activity of compounds 1 and 2 on the fungus Aspergillus niger was evaluated. A variation of the pulp substrate method of Example 2 was used.
When fungi are used as test organisms, the pulp-substrate test method is modified to permit the growth of fungi. The pulp substrate comprises an aqueous slurry of spruce groundwood containing 1 percent by weight (dry basis) of wood fibers enriched by the addition of 0.26 percent of sodium nitrate and 0.64 percent of maltose (technical grade). Forty-gram portions of the enriched groundwood pulp slurry were added to 250 mL Erlenmeyer flasks fitted with loose metal caps and were then sterilized. Each of the following substances was then added to the flasks in the order listed:
(1) Sterile, demineralized water as required in each individual case was added to bring the total weight of the contents of each flask to 50 grams, after allowing for all subsequent additions specified hereinafter (including inoculation with the aqueous suspension of spores and/or mycelial fragments of the test fungus).
(2) One milliliter of a 2.0 percent by weight sterile solution of rosin size. Rosin size is the pasty sodium soap of rosin containing approximately 20 to 30 percent free rosin and 30 percent water. A suitable rosin size is that known as rosin size 70D made by Papermaker's Chemical Department, Hercules, Inc., Kalamazoo, Mich.
(3) A solution of the toxicant or control agent to be evaluated in each test, to give the concentration desired in parts per million by weight.
(4) A sterile solution of buffer salts to adjust the substrate to a pH of 4.5 to 5.0, prepared from 0.2M solutions of potassium acid phthalate and sodium hydroxide. The buffer mixtures were prepared according to the procedures set forth in U.S. Pat. No. 2,881,070.
(5) Inoculum consisting of 1 milliliter of an aqueous suspension of spores and/or mycelial fragments of the test organism, Aspergillus niger.
After the inoculant suspensions of the test fungi were added, the flasks were incubated at a temperature of 30°±1° C. for a period adequate for growth to occur in the controls (portions of inoculated pulp substrate which contained no toxicant). The customary periods of incubation were 7 and 14 days. Growth was recorded after each period on the basis of the following key: […]

Chlorella pyrenoidosa = experiment: Growth inhibition of algae in Difco Algae Broth (Table 6); assay type: cell-based; details: Auxenochlorella pyrenoidosa, 672 h, read-out: Minimum inhibitory concentration
Method: The growth-inhibiting activity of the method of the invention against the algae Chlorella pyrenoidosa was evaluated at two different pH levels in Difco Algae Broth. The content of the broth was as follows: Forty-gram portions of the algae medium were added to 250 mL Erlenmeyer flasks fitted with loose metal caps and were then sterilized. Each of the following substances was then added to the flasks in the order listed: (1) Sterile algae medium as required to bring the total weight of the contents of each flask to 50 grams, after allowing for all subsequent additions specified below. (2) A solution of the toxicant or of a control agent to be evaluated in each test, to give the concentration desired in parts per million by weight. (3) Chlorella pyrenoidosa, in amounts sufficient to give excellent growth in the controls after 14 days. This was achieved by adding 1 milliliter of a 14 day old culture having luxuriant growth. The Chlorella pyrenoidosa culture was obtained from American Type Culture Collection No. 7516. Control experiments were carried out where no toxicants were employed. In the algicidal tests the growth of algae in the nutrient is lush green and can be seen with the naked eye. Since the minimum inhibitory concentrations of the compounds in this example are those which result in complete inhibition, evaluation of the test results is not subjective. After the inoculum of the test algae was added, the flasks were incubated at a temperature of 28°±2° C. under fluorescent illumination of 250 foot-candle intensity (8 hours light, 16 hours darkness) for a period adequate for growth in the controls (those portions of medium which contained no toxicant). Observations of growth were made at 7-day intervals. Minimum inhibitory concentrations are those that prevented complete growth after 28 days.

[2] = 0.01 % by weight, alkyd, eight weeks
[3] = 0.01 % by weight, latex, four weeks
[4] = 0.025 % by weight, alkyd, eight weeks
[5] = 0.025 % by weight, latex, four weeks
[6] = 0.05 % by weight, alkyd, eight weeks
[7] = 0.05 % by weight, latex, four weeks
[8] = 0.10 % by weight, alkyd, eight weeks
[9] = 0.10 % by weight, latex, four weeks
[10] = 0.25 % by weight, alkyd, eight weeks
[11] = 0.25 % by weight, latex, four weeks
[12] = 0.50 % by weight, alkyd, eight weeks
[13] = 0.50 % by weight, latex, four weeks

Row | SMILES | Growth of mold on the surface of interior coatings [1, 2] | Growth of mold on the surface of interior coatings [1, 3] | Growth of mold on the surface of interior coatings [1, 4] | Growth of mold on the surface of interior coatings [1, 5] | Growth of mold on the surface of interior coatings [1, 6] | Growth of mold on the surface of interior coatings [1, 7] | Growth of mold on the surface of interior coatings [1, 8] | Growth of mold on the surface of interior coatings [1, 9] | Growth of mold on the surface of interior coatings [1, 10] | Growth of mold on the surface of interior coatings [1, 11] | Growth of mold on the surface of interior coatings [1, 12] | Growth of mold on the surface of interior coatings [1, 13] | killing at 1 ppm (Enterobacter aerogenes; pH 7.0) | killing at 1 ppm (Enterobacter aerogenes; pH 8.0) | killing at 2 ppm (Enterobacter aerogenes; pH 7.0) | killing at 2 ppm (Enterobacter aerogenes; pH 8.0) | killing at 4 ppm (Enterobacter aerogenes; pH 7.0) | killing at 4 ppm (Enterobacter aerogenes; pH 8.0) | killing at 8 ppm (Enterobacter aerogenes; pH 7.0) | killing at 8 ppm (Enterobacter aerogenes; pH 8.0) | also measured
1 | COc1ccc(C(=O)CBr)cc1Br [Compound 1, 2,3'-dibromo-4'-methoxyacetophenone] | 5 | 8 | 5 | 8 | 6 | 9 | 6 | 9 | 7 | 10 | 7 | 10 | 31% | 73% | 25% | 81% | 38% | 93% | 0% | 97% | killing at 10 ppm (Enterobacter aerogenes; pH 7.0): 10%; killing at 10 ppm (Enterobacter aerogenes; pH 8.0): 92%; killing at 15 ppm (Enterobacter aerogenes; pH 7.0): 18%; killing at 15 ppm (Enterobacter aerogenes; pH 8.0): 99.8%; killing at 20 ppm (Enterobacter aerogenes; pH 7.0): 96%; killing at 20 ppm (Enterobacter aerogenes; pH 8.0): 100%; killing at 25 ppm (Enterobacter aerogenes; pH 7.0): 99%; killing at 25 ppm (Enterobacter aerogenes; pH 8.0): 97.8%; bactericidal activity (in words) (Enterobacter aerogenes): good bactericides; Inhibition of Aspergillus niger, growth after 14 days (Aspergillus niger; 5 ppm): 4; Inhibition of Aspergillus niger, growth after 14 days (Aspergillus niger; 10 ppm): 2; Inhibition of Aspergillus niger, growth after 14 days (Aspergillus niger; 25 ppm): 0; Inhibition of Aspergillus niger, growth after 14 days (Aspergillus niger; 100 ppm): 0; MIC (Chlorella pyrenoidosa; pH 7.0, 28 days): 4 µg/mL (≈ 13 µM); MIC (Chlorella pyrenoidosa; pH 8.0, 28 days): 2 µg/mL (≈ 6.49 µM)
2 | COc1ccc(C(=O)C(Br)Br)cc1Br [Compound 2, 2,2,3'-tribromo-4'-methoxyacetophenone] | 5 | 9 | 5 | 10 | 6 | 10 | 8 | 10 | 10 | 10 | 10 | 10 | 12% | 9% | 22% | 43% | 41% | 83% | 35% | 91% | killing at 10 ppm (Enterobacter aerogenes; pH 7.0): 39%; killing at 10 ppm (Enterobacter aerogenes; pH 8.0): 89%; killing at 15 ppm (Enterobacter aerogenes; pH 7.0): 52%; killing at 15 ppm (Enterobacter aerogenes; pH 8.0): 96%; killing at 20 ppm (Enterobacter aerogenes; pH 7.0): 45%; killing at 20 ppm (Enterobacter aerogenes; pH 8.0): 98%; killing at 25 ppm (Enterobacter aerogenes; pH 7.0): 51%; killing at 25 ppm (Enterobacter aerogenes; pH 8.0): 99%; bactericidal activity (in words) (Enterobacter aerogenes): good bactericides; Inhibition of Aspergillus niger, growth after 14 days (Aspergillus niger; 5 ppm): 4; Inhibition of Aspergillus niger, growth after 14 days (Aspergillus niger; 10 ppm): 2; Inhibition of Aspergillus niger, growth after 14 days (Aspergillus niger; 25 ppm): 0; Inhibition of Aspergillus niger, growth after 14 days (Aspergillus niger; 100 ppm): 0; MIC (Chlorella pyrenoidosa; pH 7.0, 28 days): 8 µg/mL (≈ 20.7 µM); MIC (Chlorella pyrenoidosa; pH 8.0, 28 days): 4 µg/mL (≈ 10.3 µM)
